Assay results reported in patent publication EP1082127B1 (WARNER-LAMBERT COMPANY LLC, priority 1998, dated 1999).

Tests used:
[1] = tested on: IL-1β production in human peripheral blood mononuclear cells (PBMCs); test: PBMC Cellular Assay - IC50 Determinations (LPS-stimulated IL-1β production, ELISA); type: cell-based; settings: human PBMCs stimulated overnight with 10 ng/mL LPS, mature IL-1β by ELISA
Text: Further evidence that compounds of Formula I are inhibitors of ICE is provided by their ability to inhibit IL-1β production in human peripheral blood mononuclear cells (PBMCs) as described herein. PBMCs are isolated from heparinized blood by centrifugation over a ficoll cushion, then washed three times with phosphate-buffered saline. PBMCs are suspended in a medium containing RPMI 1640 with glutamine, penicillin, streptomycin, and 2% human AB serum, then plated at 10^6 cells per well in 96-well flat bottom plates. PBMCs are stimulated overnight with 10 ng/mL of lipopolysaccharide (LPS, E. coli strain 0111:B4; Calbiochem) in the presence or absence of a compound of Formula I. Medium is harvested, and the level of mature IL-1β was determined using an ELISA kit from R&D Systems. Cells were cultured for an additional 4 hours in the presence of 3-(4,5-dimethylthiazol-2-yl)-2,5-diphenyltetrazolium bromide (MTT) to determine viability.

ICE [2] = molecular target: T1, ICE (Homo sapiens, UniProt P29466); test: ICE inhibition, Ki determination (fluorogenic substrate Ac-Tyr-Val-Ala-Asp-AMC); type: biochemical; settings: 15 µM Ac-Tyr-Val-Ala-Asp-AMC, 0.5 nM enzyme, 30°C, reversible competitive model
T1 sequence (P29466 120-297 limits assumed): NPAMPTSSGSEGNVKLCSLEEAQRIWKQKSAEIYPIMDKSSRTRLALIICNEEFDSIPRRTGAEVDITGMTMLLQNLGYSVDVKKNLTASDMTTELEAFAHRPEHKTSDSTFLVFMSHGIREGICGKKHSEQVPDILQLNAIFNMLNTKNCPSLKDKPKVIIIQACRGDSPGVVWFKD
T1 sequence (P29466 317-404 limits assumed): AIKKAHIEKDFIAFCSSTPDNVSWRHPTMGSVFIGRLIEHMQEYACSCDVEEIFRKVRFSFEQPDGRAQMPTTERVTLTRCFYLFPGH
Method: Serial dilutions of each compound of the invention are prepared using an initial 8-fold dilution of a DMSO stock into HGE (100 mM HEPES, 20% glycerol v/v, 0.5 mM EDTA), followed by seven serial 2-fold dilutions into HGE + 12.5% DMSO. Ten microliters of diluted stocks or of vehicle (HGE + 12.5% DMSO) are placed in triplicate onto a 96-well microtiter plate. Enzyme is diluted into assay buffer (HGE, 5 mM DTT, 15 µM Ac-Tyr-Val-Ala-Asp-AMC; 0.5 nM final enzyme concentration, pre-warmed to 30°C), and this reaction mixture is added to the plate at 90 µL/well. Substrate hydrolysis is monitored for 300 seconds at 30°C using 385 and 460 nm excitation and emission filters, respectively. Triplicate curves are averaged, and slopes are evaluated by linear regression. To evaluate Ki, plots of percent inhibition vs inhibitor concentration are fit by non-linear regression to a reversible, competitive model: [formula] where the competition factor is (1 + [S]/KM) = 2.

ICE [3] = molecular target: T1, ICE; test: ICE Colorimetric Dose-Response (IC50) Assay; type: biochemical; settings: 60 minutes preincubation, 50 µM Ac-Tyr-Val-Ala-Asp-pNA, 25°C
Method: (§1) Diluted inhibitor stocks are prepared by two-fold serial dilution from a primary stock whose concentration is selected (based on screening results or on prior attempts at IC50 evaluation) to achieve approximately 95% inhibition in the most concentrated well. Aliquots of each dilution are transferred to a microtitre plate in triplicate.
(§2) ICE enzyme is diluted to approximately 24 nM in HGE buffer (100 mM Hepes pH 7.5, 0.5 mM EDTA, 20% glycerol, 0.1% Bovine Serum Albumin (BSA), and activated by adding dithiothreitol (DTT) to a final concentration of 5 mM. The activated enzyme is then aliquoted into wells containing inhibitor or vehicle, and the plate is preincubated for 60 minutes at ambient temperature. Substrate (Ac-Tyr-Val-Ala-Asp-pNA) is added to each well to a final concentration of 50 µM, and plates are placed in the microtitre plate-reader thermostated to 25°C. Beginning 5 minutes after addition of substrate, absorbance (405 nm) of wells is monitored for 1 hour, and activity is calculated as the mean rate of change in absorbance during this interval.

Ich-2 enzyme = molecular target: T2, Ich-2 enzyme (Homo sapiens, UniProt P49662); test: Ich-2 Colorimetric Dose-Response (IC50) Assay; type: biochemical; settings: enzyme 64 nM, 60 µM Ac-Leu-Glu-Val-Asp-pNA; read-out: ICH2 IC50 (Caspase 4)
T2 sequence (P49662 81-270 limits assumed): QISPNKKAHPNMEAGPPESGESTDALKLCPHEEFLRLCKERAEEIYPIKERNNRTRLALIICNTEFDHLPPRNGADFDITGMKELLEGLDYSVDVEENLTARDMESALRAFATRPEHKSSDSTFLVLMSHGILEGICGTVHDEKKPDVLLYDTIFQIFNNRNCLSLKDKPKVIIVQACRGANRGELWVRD
T2 sequence (P49662 290-377 limits assumed): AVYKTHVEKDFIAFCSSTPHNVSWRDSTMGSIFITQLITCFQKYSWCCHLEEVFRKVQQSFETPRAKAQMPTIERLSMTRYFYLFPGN
Method: as §1, §2
Inhibition of Ich-2 enzyme is assayed as described above for ICE, except that enzyme is used at 64 nM, and 60 µM of the Ich-2-specific substrate Ac-Leu-Glu-Val-Asp-pNA is used instead of the ICE substrate Ac-Tyr-Val-Ala-Asp-pNA.

| SMILES | Ki (ICE [2]) [µM] | IC50 (ICE [3]) [µM] | IC50 (Ich-2 enzyme) [µM] | IC50 [1] [µM] |
| --- | --- | --- | --- | --- |
| CC(CC(=O)NCCc1ccccc1)C(=O)NC(CC(=O)O)C(=O)CNS(=O)(=O)CCc1ccccc1 (stereo not shown) [Example 1, 3-(2-Methyl-3-phenethylcarbamoyl-propionylamino)-4-oxo-5-(2-phenylethanesulfonylamino)-pentanoic acid] | 1.6 | 14.5 | 89 | 82.5 |
| CC(C)C(CC(=O)N(C)CCOc1ccccc1)C(=O)NC(C=O)CC(=O)O (stereo not shown) [Example 22, 3-(3-Methyl-2-{[methyl-(2-phenoxy-ethyl)-carbamoyl]-methyl}-butyrylamino)-4-oxo-butyric acid] | 0.133 | 1.67 | – | 19 |
| CCOC1OC(=O)CC1NC(=O)C(CC(=O)NCCn1cnc2ccccc21)C(C)C (stereo not shown) [Example 35, N^4-(2-Benzoimidazol-1-yl-ethyl)-N^1-(2-ethoxy-5-oxo-tetrahydro-furan-3-yl)-2-isopropyl-succinamide] | 0.0511 | 1.06 | – | 5.5 |
| CCOC1OC(=O)CC1NC(=O)C(CC(=O)NCCn1nnc2ccccc21)C(C)C (stereo not shown) [Example 41, N^4-(2-Benzotriazol-1-yl-ethyl)-N^1-(2-ethoxy-5-oxo-tetrahydro-furan-3-yl)-2-isopropyl-succinamide] | 0.409 | 13 | – | 17.5 |
| CCOC1OC(=O)CC1NC(=O)C(CC(=O)NCCNc1ccccc1)C(C)C (stereo not shown) [Example 43, N^1-(2-Ethoxy-5-oxo-tetrahydro-furan-3-yl)-2-isopropyl-N^4-(2-phenylamino-ethyl)-succinamide] | 0.0981 | 2.28 | – | 7.5 |
| CCOC1OC(=O)CC1NC(=O)C(CC(=O)NCCCc1cc(OC)c(OC)c(OC)c1)C(C)C (stereo not shown) [Example 47, N^1-(2-Ethoxy-5-oxo-tetrahydro-furan-3-yl)-2-isopropyl-N^4-[3-(3,4,5-trimethoxy-phenyl)-propyl]-succinamide] | 1.93 | 112 | – | 11 |
| CCOC1OC(=O)CC1NC(=O)C(CC(=O)NCCCCc1ccccc1)C(C)C (stereo not shown) [Example 49, N^1-(2-Ethoxy-5-oxo-tetrahydro-furan-3-yl)-2-isopropyl-N^4-[4-(phenyl)-butyl]-succinamide] | 2.15 | 123 | – | – |
| CCOC1OC(=O)CC1NC(=O)[C@@H](CC(=O)NCCCc1ccccc1)C(C)C (stereo partly shown) [Example 51, N^1-(2-Ethoxy-5-oxo-tetrahydro-furan-3-yl)-2-isopropyl-N^4-[4-(phenyl)-propyl]-succinamide] | 0.259 | 15 | – | 16.2 |
| CCOC1OC(=O)CC1NC(=O)C(CC(=O)NCCc1c[nH]c2ccc(F)cc12)C(C)C (stereo not shown) [Example 52, N^1-(2-Ethoxy-5-oxo-tetrahydro-furan-3-yl)-N^4-[2-(5-fluoro-1H-indol-3-yl)-ethyl]-2-isopropyl-succinamide] | 0.0185 | 0.486 | – | 0.75 |
| COc1cc(CCCNC(=O)C[C@H](C(=O)NC(C=O)CC(=O)O)C(C)C)cc(OC)c1OC (stereo partly shown) [Example 62, 3-(3-methyl-2-{[3-(3,4,5-trimethoxy-pheny)-propylcarbamoyl]-methyl}-butyrylamino)-4-oxo-butyric acid] | 0.274 | 2.56 | – | 23 |
| CCOC(=O)CC(C=O)NC(=O)C(CC(=O)NCCOc1ccccc1)C(C)C (stereo not shown) [Example 63, 3-{3-Methyl-2-[(2-phenoxy-ethylcarbamoyl)-methyl]-butyrylamino}-4-oxo-butyric acid ethyl ester] | 6.92 | 197 | – | 14.5 |
| CCOC(=O)CC(C#N)NC(=O)C(CC(=O)NCCOc1ccccc1)C(C)C (stereo not shown) [Example 64, 3-Cyano-3-{3-methyl-2-[(2-phenoxy-ethylcarbamoyl)-methyl]-butyrylamino}-propionic acid ethyl ester] | > 100 | – | – | > 100 |

Further molecules by falling Ki (ICE [2]), results first:

| Ki (ICE [2]) [µM] | IC50 (ICE [3]) [µM] | IC50 (Ich-2 enzyme) [µM] | SMILES | IC50 [1] [µM] |
| --- | --- | --- | --- | --- |
| 107 | – | – | CC(C)C(CC(=O)NCCOc1ccccc1)C(=O)NC(C#N)CC(=O)O (stereo not shown) [Example 65, 3-Cyano-3-{3-methyl-2-[(2-phenoxy-ethylcarbamoyl)-methyl]-butyrylamino}-propionic acid] | > 100 |
| 1.01 | 59.9 | – | CCOC1OC(=O)CC1NC(=O)C(CC(=O)NCCc1ccccc1)C(C)C (stereo not shown) [Example 48, N^1-(2-Ethoxy-5-oxo-tetrahydro-furan-3-yl)-2-isopropyl-N^4-[2-(phenyl)-ethyl]-succinamide] | 13.5 |
| 0.446 | 13.2 | – | CCOC1OC(=O)CC1NC(=O)C(CC(=O)NCCOc1ccccc1)C(C)C (stereo not shown) [Example 39, N^1-(2-Ethoxy-5-oxo-tetrahydro-furan-3-yl)-2-isopropyl-N^4-(2-phenoxyethyl)-succinamide] | 5 |
| 0.191 | 1.73 | – | CCOC1OC(=O)CC1NC(=O)C(CC(=O)NCCn1ncc2ccccc21)C(C)C (stereo not shown) [Example 42, N^1-(2-Ethoxy-5-oxo-tetrahydro-furan-3-yl)-N^4-(2-indazol-1-yl-ethyl)-2-isopropyl-succinamide] | 7.5 |
| 0.107 | 0.0087 | – | CC(C)C(CC(=O)NCCCc1ccccc1)C(=O)NC(CC(=O)O)C(=O)COc1cc2ccccc2cc1-c1ncc[nH]1 (stereo not shown) [Example 14, 5-[3-(1H-Imidazol-2-yl)-naphthalen-2-yloxy]-3-{3-methyl-2-[(3-phenyl-propylcarbamoyl)-methyl]-butyrylamino}-4-oxo-pentanoic acid] | 19 |
| 0.0538 | 0.924 | – | CCOC1OC(=O)CC1NC(=O)C(CC(=O)NCCn1ccc2ccccc21)C(C)C (stereo not shown) [Example 50, N^1-(2-Ethoxy-5-oxo-tetrahydro-furan-3-yl)-N^4-(2-indol-1-yl-ethyl)-2-isopropyl-succinamide] | 2 |
| 0.0475 | 1.22 | – | CCOC1OC(=O)CC1NC(=O)C(CC(=O)NCCc1c[nH]c2cc(F)ccc12)C(C)C (stereo not shown) [Example 44, N^1-(2-Ethoxy-5-oxo-tetrahydro-furan-3-yl)-N^4-[2-(6-fluoro-1H-indol-3-yl)-ethyl]-2-isopropyl-succinamide] | 2.5 |
| 0.0354 | 1.15 | – | CCOC1OC(=O)CC1NC(=O)C(CC(=O)NCCc1c[nH]c2cc(OC)ccc12)C(C)C (stereo not shown) [Example 40, N^1-(2-Ethoxy-5-oxo-tetrahydro-furan-3-yl)-2-isopropyl-N^4-[2-(6-methoxy-1H-indol-3-yl)-ethyl]-succinamide] | 2.9 |
| 0.015 | 0.54 | – | CC(C)[C@H](CC(=O)NCCOc1ccccc1)C(=O)NC(C=O)CC(=O)O (stereo partly shown) [Example 8] | 3.75 |
